Results reported in ChEMBL document CHEMBL4699627, “Synthesis and biological screening of thiosemicarbazones of substituted 3-acetylcoumarins having d-glucose moiety” (Bioorg Med Chem Lett, 2020).
Values after ≈ are worked out from the molar mass of the structure shown.

Assays:
[1] = test system: Bacillus subtilis; test: Antibacterial activity against Bacillus subtilis ATCC 11774 assessed as reduction in bacterial growth; format: functional
[2] = test system: Aspergillus niger; test: Antifungal activity against Aspergillus niger ATCC 439; format: functional
[3] = test system: Candida albicans; test: Antifungal activity against Candida albicans ATCC 7754; format: functional
[4] = test system: Aspergillus flavus; test: Antifungal activity against Aspergillus flavus ATCC 204304; format: functional
[5] = test system: Staphylococcus aureus; test: Antibacterial activity against Staphylococcus aureus ATCC 11632 assessed as reduction in bacterial growth; format: functional
[6] = test system: Klebsiella pneumoniae; test: Antibacterial activity against Klebsiella pneumoniae ATCC 4352 assessed as reduction in bacterial growth; format: functional
[7] = test system: Escherichia coli; test: Antibacterial activity against Escherichia coli ATCC 25922 assessed as reduction in bacterial growth; format: functional
[8] = test system: Staphylococcus epidermidis; test: Antibacterial activity against Staphylococcus epidermidis ATCC 12228 assessed as reduction in bacterial growth; format: functional
[9] = test system: Salmonella typhimurium; test: Antibacterial activity against Salmonella typhimurium ATCC 14028 assessed as reduction in bacterial growth; format: functional, Salmonella enterica subsp. enterica serovar Typhimurium; settings: Salmonella enterica
[10] = test system: Saccharomyces cerevisiae; test: Antifungal activity against Saccharomyces cerevisiae SH 20; format: functional
[11] = test system: PC-3; test: Cytotoxicity against human PC-3 cells incubated for 3 days by MTT assay; format: functional, cell-based; settings: PC-3, 72 h
[12] = test system: MDA-MB-231; test: Cytotoxicity against human MDA-MB-231 cells incubated for 3 days by MTT assay; format: functional, cell-based; settings: MDA-MB-231, 72 h
[13] = test system: Pseudomonas aeruginosa; test: Antibacterial activity against Pseudomonas aeruginosa ATCC […] assessed as reduction in bacterial growth; format: functional
[14] = test system: Mycobacterium tuberculosis; test: Antimycobacterial activity against Mycobacterium tuberculosis H37Ra ATCC 25177 assessed as growth inhibition incubated for 7 days measured after 48 hrs treatment with resazurin by alamarblue assay; format: functional; settings: H37Ra ATCC 25177, 216 h, time 9 day
[15] = test system: Mycobacterium tuberculosis; test: Antimycobacterial activity against Mycobacterium tuberculosis H37Ra ATCC 25177 assessed as bacterial killing incubated for 4 weeks by CLSI standard plate count method; format: functional; settings: H37Ra ATCC 25177, 672 h
[16] = target: Rhodesain (Trypanosoma brucei rhodesiense, UniProt Q95PM0); test: Inhibition of Trypanosoma brucei rhodesiense rhodesain using fluorogenic substrate Z-Phe-Arg-aminomethylcoumarin as substrate by fluorescence assay
Rhodesain, sequence (Q95PM0 whole entry): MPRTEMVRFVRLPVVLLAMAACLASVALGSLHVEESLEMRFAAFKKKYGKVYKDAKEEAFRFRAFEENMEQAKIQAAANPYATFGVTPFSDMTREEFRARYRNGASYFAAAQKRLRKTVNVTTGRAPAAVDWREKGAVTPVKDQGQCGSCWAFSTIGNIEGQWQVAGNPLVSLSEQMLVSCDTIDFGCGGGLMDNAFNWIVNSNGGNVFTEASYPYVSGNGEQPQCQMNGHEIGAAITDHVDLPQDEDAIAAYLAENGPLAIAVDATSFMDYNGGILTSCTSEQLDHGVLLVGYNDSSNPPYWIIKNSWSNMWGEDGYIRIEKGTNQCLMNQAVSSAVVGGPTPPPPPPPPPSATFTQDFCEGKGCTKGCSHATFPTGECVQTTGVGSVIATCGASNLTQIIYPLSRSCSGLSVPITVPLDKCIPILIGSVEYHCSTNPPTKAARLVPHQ

Row | Structure (SMILES) | MIC [1] [µM] | MIC [2] [µM] | MIC [3] [µM] | MIC [4] [µM] | MIC [5] [µM] | MIC [6] [µM] | MIC [7] [µM] | MIC [8] [µM] | MIC [9] [µM] | MIC [10] [µM] | IC50 [11] [nM] | IC50 [12] [nM] | MIC [13] [µM] | MIC [14] [µg/mL] | MBC [15] [µg/mL] | IC50 [16] [nM]
1 | CC(=O)OC[C@H]1O[C@@H](NC(=S)N/N=C(\C)c2cc3cccc([N+](=O)[O-])c3oc2=O)[C@H](OC(C)=O)[C@@H](OC(C)=O)[C@@H]1OC(C)=O | 12.5 (≈ 7.96 µg/mL) | 3.12 (≈ 1.99 µg/mL) | 0.78 (≈ 0.497 µg/mL) | 12.5 (≈ 7.96 µg/mL) | 0.78 (≈ 0.497 µg/mL) | 12.5 (≈ 7.96 µg/mL) | 25 (≈ 15.9 µg/mL) | 12.5 (≈ 7.96 µg/mL) | > 100 | 12.5 (≈ 7.96 µg/mL) | – | – | – | – | – | –
2 | O=c1[nH]cc(F)c(=O)[nH]1 [FLUOROURACIL] | – | – | – | – | – | – | – | – | – | – | 2880 | 4750 | – | – | – | –
3 | CC(=O)OC[C@H]1O[C@@H](NC(=S)N/N=C(\C)c2cc3cc(C)ccc3oc2=O)[C@H](OC(C)=O)[C@@H](OC(C)=O)[C@@H]1OC(C)=O | – | 1.56 (≈ 0.945 µg/mL) | 3.12 (≈ 1.89 µg/mL) | – | 12.5 (≈ 7.57 µg/mL) | 100 (≈ 60.6 µg/mL) | 50 (≈ 30.3 µg/mL) | 50 (≈ 30.3 µg/mL) | 25 (≈ 15.1 µg/mL) | 25 (≈ 15.1 µg/mL) | – | – | 12.5 (≈ 7.57 µg/mL) | – | – | –
4 | O=C(O)c1cn(C2CC2)c2cc(N3CCNCC3)c(F)cc2c1=O [CIPROFLOXACIN] | 3.12 (≈ 1.04 µg/mL) | – | – | – | 3.12 (≈ 1.04 µg/mL) | 1.56 (≈ 0.517 µg/mL) | 1.56 (≈ 0.517 µg/mL) | 3.12 (≈ 1.04 µg/mL) | 1.56 (≈ 0.517 µg/mL) | – | – | – | 1.56 (≈ 0.517 µg/mL) | – | – | –
5 | COc1cccc2cc(/C(C)=N/NC(=S)N[C@@H]3O[C@H](COC(C)=O)[C@@H](OC(C)=O)[C@H](OC(C)=O)[C@H]3OC(C)=O)c(=O)oc12 | 50 (≈ 31.1 µg/mL) | 6.25 (≈ 3.89 µg/mL) | 25 (≈ 15.5 µg/mL) | 6.25 (≈ 3.89 µg/mL) | 50 (≈ 31.1 µg/mL) | 1.56 (≈ 0.97 µg/mL) | 1.56 (≈ 0.97 µg/mL) | 3.12 (≈ 1.94 µg/mL) | – | 50 (≈ 31.1 µg/mL) | – | – | – | – | – | –
6 | CC(=O)OC[C@H]1O[C@@H](NC(=S)N/N=C(\C)c2cc3ccc(C)cc3oc2=O)[C@H](OC(C)=O)[C@@H](OC(C)=O)[C@@H]1OC(C)=O | 100 (≈ 60.6 µg/mL) | 25 (≈ 15.1 µg/mL) | 3.12 (≈ 1.89 µg/mL) | > 100 | 1.56 (≈ 0.945 µg/mL) | 25 (≈ 15.1 µg/mL) | 25 (≈ 15.1 µg/mL) | – | – | > 100 | – | – | 25 (≈ 15.1 µg/mL) | – | – | –
7 | CN[C@H](CC(C)C)C(=O)N[C@H]1C(=O)N[C@@H](CC(N)=O)C(=O)N[C@H]2C(=O)N[C@H]3C(=O)N[C@H](C(=O)N[C@H](C(=O)O)c4cc(O)cc(O)c4-c4cc3ccc4O)[C@H](O)c3ccc(c(Cl)c3)Oc3cc2cc(c3O[C@@H]2O[C@H](CO)[C@@H](O)[C@H](O)[C@H]2O[C@H]2C[C@](C)(N)[C@H](O)[C@H](C)O2)Oc2ccc(cc2Cl)[C@H]1O [VANCOMYCIN] | 1.56 (≈ 2.26 µg/mL) | – | – | – | 3.12 (≈ 4.53 µg/mL) | – | – | – | – | – | – | – | – | – | – | –
8 | Clc1ccc(COC(Cn2ccnc2)c2ccc(Cl)cc2Cl)c(Cl)c1 (centres undefined) [MICONAZOLE] | – | 1.56 (≈ 0.649 µg/mL) | 3.12 (≈ 1.3 µg/mL) | 1.56 (≈ 0.649 µg/mL) | – | – | – | – | – | 3.12 (≈ 1.3 µg/mL) | – | – | – | – | – | –
9 | NC(=S)N/N=C/c1ccc(OC(=O)CC2SC(=O)NC2=O)cc1 (centres undefined) | – | – | – | – | – | – | – | – | – | – | – | – | – | 0.031 (≈ 0.088 µM) | 0.063 (≈ 0.179 µM) | –
10 | CC(=O)OC[C@H]1O[C@@H](NC(=S)N/N=C(\C)c2cc3ccccc3oc2=O)[C@H](OC(C)=O)[C@@H](OC(C)=O)[C@@H]1OC(C)=O | > 100 | > 100 | 100 (≈ 59.2 µg/mL) | 25 (≈ 14.8 µg/mL) | – | 100 (≈ 59.2 µg/mL) | 50 (≈ 29.6 µg/mL) | 12.5 (≈ 7.39 µg/mL) | 100 (≈ 59.2 µg/mL) | 50 (≈ 29.6 µg/mL) | – | – | 50 (≈ 29.6 µg/mL) | – | – | –
11 | COc1cc(C/C=N/NC(N)=S)ccc1O[C@@H]1O[C@H](COC(C)=O)[C@H](OC(C)=O)[C@H](OC(C)=O)[C@H]1OC(C)=O | – | – | – | – | – | – | – | – | – | – | – | – | – | – | – | 1200
12 | CC(=O)OC[C@H]1O[C@@H](NC(=S)N/N=C(\C)c2c(C)c3ccccc3oc2=O)[C@H](OC(C)=O)[C@@H](OC(C)=O)[C@@H]1OC(C)=O | > 100 | 12.5 (≈ 7.57 µg/mL) | 12.5 (≈ 7.57 µg/mL) | 25 (≈ 15.1 µg/mL) | 25 (≈ 15.1 µg/mL) | 50 (≈ 30.3 µg/mL) | – | 100 (≈ 60.6 µg/mL) | – | 12.5 (≈ 7.57 µg/mL) | – | – | – | – | – | –
13 | OC(Cn1cncn1)(Cn1cncn1)c1ccc(F)cc1F [FLUCONAZOLE] | – | 1.56 (≈ 0.478 µg/mL) | 0.78 (≈ 0.239 µg/mL) | 0.78 (≈ 0.239 µg/mL) | – | – | – | – | – | 0.78 (≈ 0.239 µg/mL) | – | – | – | – | – | –
14 | CC(=O)OC[C@H]1O[C@@H](NC(=S)N/N=C(\C)c2c(C)c3ccc(O)cc3oc2=O)[C@H](OC(C)=O)[C@@H](OC(C)=O)[C@@H]1OC(C)=O | 100 (≈ 62.2 µg/mL) | 3.12 (≈ 1.94 µg/mL) | > 100 | 1.56 (≈ 0.97 µg/mL) | 0.78 (≈ 0.485 µg/mL) | 100 (≈ 62.2 µg/mL) | 100 (≈ 62.2 µg/mL) | 1.56 (≈ 0.97 µg/mL) | 3.12 (≈ 1.94 µg/mL) | 0.78 (≈ 0.485 µg/mL) | – | – | 12.5 (≈ 7.77 µg/mL) | – | – | –
15 | CC(=O)OC[C@H]1O[C@@H](NC(=S)N/N=C(\C)c2cc3cc(Cl)ccc3oc2=O)[C@H](OC(C)=O)[C@@H](OC(C)=O)[C@@H]1OC(C)=O | – | 100 (≈ 62.6 µg/mL) | 1.56 (≈ 0.977 µg/mL) | 12.5 (≈ 7.83 µg/mL) | > 100 | – | 25 (≈ 15.7 µg/mL) | > 100 | 50 (≈ 31.3 µg/mL) | 50 (≈ 31.3 µg/mL) | – | – | 3.12 (≈ 1.96 µg/mL) | – | – | –
16 | C/C(=N\NC(=S)NN[C@@H]1O[C@H](CO)[C@@H](O)[C@H](O)[C@H]1O)c1ccccn1 | – | – | – | – | – | – | – | – | – | – | 2800 | 1600 | – | – | – | –
17 | CC(=O)OC[C@H]1O[C@@H](NC(=S)N/N=C(\C)c2cc3cc(Br)ccc3oc2=O)[C@H](OC(C)=O)[C@@H](OC(C)=O)[C@@H]1OC(C)=O | – | – | 50 (≈ 33.5 µg/mL) | 6.25 (≈ 4.19 µg/mL) | 100 (≈ 67 µg/mL) | 25 (≈ 16.8 µg/mL) | 3.12 (≈ 2.1 µg/mL) | 3.12 (≈ 2.1 µg/mL) | 25 (≈ 16.8 µg/mL) | 25 (≈ 16.8 µg/mL) | – | – | 3.12 (≈ 2.1 µg/mL) | – | – | –
18 | CC(=O)OC[C@H]1O[C@@H](NC(=S)N/N=C(\C)c2cc3cc([N+](=O)[O-])ccc3oc2=O)[C@H](OC(C)=O)[C@@H](OC(C)=O)[C@@H]1OC(C)=O | > 100 | 12.5 (≈ 7.96 µg/mL) | 25 (≈ 15.9 µg/mL) | 100 (≈ 63.7 µg/mL) | 12.5 (≈ 7.96 µg/mL) | 50 (≈ 31.8 µg/mL) | 3.12 (≈ 1.99 µg/mL) | 12.5 (≈ 7.96 µg/mL) | 100 (≈ 63.7 µg/mL) | 25 (≈ 15.9 µg/mL) | – | – | 1.56 (≈ 0.993 µg/mL) | – | – | –
